≈ marks a conversion by molar mass, not a printed value.
Assays:
[1] = Distribution coefficient, log D of the compound at pH 7.4 by chromatographic method; type: physicochemical; conditions: octanol/water
[2] = Permeability across phosphatidyl choline membrane at pH 7.4 after 3 hrs by HPLC with UV detection method; type: ADME; conditions: not told, read-out: permeability
[3] = biological target: T1, Bromodomain-containing protein 3 (Homo sapiens, UniProt Q15059); assay: Binding affinity to BRD3 containing BD1 bromodomains (unknown origin) by TR-FRET assay
T1 sequence (Q15059 whole entry): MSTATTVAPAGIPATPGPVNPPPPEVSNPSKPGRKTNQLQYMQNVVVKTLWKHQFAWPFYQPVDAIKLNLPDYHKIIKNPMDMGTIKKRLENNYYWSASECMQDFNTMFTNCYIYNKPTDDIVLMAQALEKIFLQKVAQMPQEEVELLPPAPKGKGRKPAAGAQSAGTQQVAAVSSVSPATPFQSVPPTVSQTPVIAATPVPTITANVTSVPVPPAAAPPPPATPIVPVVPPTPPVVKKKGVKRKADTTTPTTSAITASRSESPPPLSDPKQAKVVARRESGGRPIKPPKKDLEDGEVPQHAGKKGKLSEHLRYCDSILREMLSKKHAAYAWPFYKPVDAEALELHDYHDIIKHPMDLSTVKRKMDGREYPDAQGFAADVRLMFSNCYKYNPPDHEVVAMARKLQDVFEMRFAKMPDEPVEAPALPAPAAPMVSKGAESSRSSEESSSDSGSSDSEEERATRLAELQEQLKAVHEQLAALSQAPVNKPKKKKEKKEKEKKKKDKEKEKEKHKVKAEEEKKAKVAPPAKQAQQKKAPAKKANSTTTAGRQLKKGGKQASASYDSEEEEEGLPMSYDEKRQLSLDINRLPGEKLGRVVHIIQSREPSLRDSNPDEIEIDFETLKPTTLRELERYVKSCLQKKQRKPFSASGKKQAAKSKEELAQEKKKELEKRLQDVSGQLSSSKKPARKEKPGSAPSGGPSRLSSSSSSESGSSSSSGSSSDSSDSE

[4] = biological target: T2, Bromodomain-containing protein 4 (Homo sapiens, UniProt O60885); assay: Binding affinity to BRD4 containing BD1 bromodomains (unknown origin) by TR-FRET assay
[5] = biological target: T1, Bromodomain-containing protein 3; assay: Binding affinity to BRD3 containing BD2 bromodomains (unknown origin) by TR-FRET assay
[6] = biological target: T2, Bromodomain-containing protein 4; assay: Binding affinity to BRD4 containing BD2 bromodomains (unknown origin) by TR-FRET assay
[7] = biological target: T3, Bromodomain testis-specific protein (Homo sapiens, UniProt Q58F21); assay: Binding affinity to BRDt containing BD2 bromodomains (unknown origin) by TR-FRET assay
[8] = biological target: Bromodomain-containing protein 4 (Homo sapiens, UniProt O60885, Y390A)
[9] = physchem; conditions: phosphate buffered saline, pH 7.4, solubility
Description: Solubility of the compound in phosphate buffered saline at pH 7.4 after 1 hr by CLND method

[10] = biological target: Bromodomain adjacent to zinc finger domain protein 2A (Homo sapiens, UniProt Q9UIF9); assay: Binding affinity to BAZ2A in human HUT78 cells incubated for 45 mins by mass spectrometry based bromosphere chemoproteomic assay; type: cell-based
[11] = biological target: Nucleosome-remodeling factor subunit BPTF (Homo sapiens, UniProt Q12830); assay: Binding affinity to BPTF in human HUT78 cells incubated for 45 mins by mass spectrometry based bromosphere chemoproteomic assay; type: cell-based
[12] = biological target: Bromodomain-containing protein 2 (Homo sapiens, UniProt P25440); assay: Binding affinity to BRD2 in human HUT78 cells incubated for 45 mins by mass spectrometry based bromosphere chemoproteomic assay; type: cell-based
[13] = biological target: T1, Bromodomain-containing protein 3; assay: Binding affinity to BRD3 in human HUT78 cells incubated for 45 mins by mass spectrometry based bromosphere chemoproteomic assay; type: cell-based
[14] = biological target: T4, Bromodomain-containing protein 9 (Homo sapiens, UniProt Q9H8M2); assay: Binding affinity to BRD9 in human HUT78 cells incubated for 45 mins by mass spectrometry based bromosphere chemoproteomic assay; type: cell-based
T4 sequence (Q9H8M2 whole entry): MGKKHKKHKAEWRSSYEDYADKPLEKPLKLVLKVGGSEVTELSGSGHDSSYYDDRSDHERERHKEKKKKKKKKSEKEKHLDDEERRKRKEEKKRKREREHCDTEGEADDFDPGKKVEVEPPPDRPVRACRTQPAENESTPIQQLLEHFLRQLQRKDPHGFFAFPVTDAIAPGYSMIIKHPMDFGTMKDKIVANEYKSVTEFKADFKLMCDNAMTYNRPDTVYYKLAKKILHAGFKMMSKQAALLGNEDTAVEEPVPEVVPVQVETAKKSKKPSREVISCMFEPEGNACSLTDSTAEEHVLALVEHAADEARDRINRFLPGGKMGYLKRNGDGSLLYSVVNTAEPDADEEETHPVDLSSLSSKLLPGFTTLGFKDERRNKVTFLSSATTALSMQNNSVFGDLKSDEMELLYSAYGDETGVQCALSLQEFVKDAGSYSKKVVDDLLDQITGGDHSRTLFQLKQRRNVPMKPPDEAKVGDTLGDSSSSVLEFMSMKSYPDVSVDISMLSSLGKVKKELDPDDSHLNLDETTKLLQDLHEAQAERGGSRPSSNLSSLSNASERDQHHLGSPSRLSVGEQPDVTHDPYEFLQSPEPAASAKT

[15] = biological target: T5, Peregrin (Homo sapiens, UniProt P55201); assay: Binding affinity to BRPF1 in human HUT78 cells incubated for 45 mins by mass spectrometry based bromosphere chemoproteomic assay; type: cell-based
T5 sequence (P55201 whole entry): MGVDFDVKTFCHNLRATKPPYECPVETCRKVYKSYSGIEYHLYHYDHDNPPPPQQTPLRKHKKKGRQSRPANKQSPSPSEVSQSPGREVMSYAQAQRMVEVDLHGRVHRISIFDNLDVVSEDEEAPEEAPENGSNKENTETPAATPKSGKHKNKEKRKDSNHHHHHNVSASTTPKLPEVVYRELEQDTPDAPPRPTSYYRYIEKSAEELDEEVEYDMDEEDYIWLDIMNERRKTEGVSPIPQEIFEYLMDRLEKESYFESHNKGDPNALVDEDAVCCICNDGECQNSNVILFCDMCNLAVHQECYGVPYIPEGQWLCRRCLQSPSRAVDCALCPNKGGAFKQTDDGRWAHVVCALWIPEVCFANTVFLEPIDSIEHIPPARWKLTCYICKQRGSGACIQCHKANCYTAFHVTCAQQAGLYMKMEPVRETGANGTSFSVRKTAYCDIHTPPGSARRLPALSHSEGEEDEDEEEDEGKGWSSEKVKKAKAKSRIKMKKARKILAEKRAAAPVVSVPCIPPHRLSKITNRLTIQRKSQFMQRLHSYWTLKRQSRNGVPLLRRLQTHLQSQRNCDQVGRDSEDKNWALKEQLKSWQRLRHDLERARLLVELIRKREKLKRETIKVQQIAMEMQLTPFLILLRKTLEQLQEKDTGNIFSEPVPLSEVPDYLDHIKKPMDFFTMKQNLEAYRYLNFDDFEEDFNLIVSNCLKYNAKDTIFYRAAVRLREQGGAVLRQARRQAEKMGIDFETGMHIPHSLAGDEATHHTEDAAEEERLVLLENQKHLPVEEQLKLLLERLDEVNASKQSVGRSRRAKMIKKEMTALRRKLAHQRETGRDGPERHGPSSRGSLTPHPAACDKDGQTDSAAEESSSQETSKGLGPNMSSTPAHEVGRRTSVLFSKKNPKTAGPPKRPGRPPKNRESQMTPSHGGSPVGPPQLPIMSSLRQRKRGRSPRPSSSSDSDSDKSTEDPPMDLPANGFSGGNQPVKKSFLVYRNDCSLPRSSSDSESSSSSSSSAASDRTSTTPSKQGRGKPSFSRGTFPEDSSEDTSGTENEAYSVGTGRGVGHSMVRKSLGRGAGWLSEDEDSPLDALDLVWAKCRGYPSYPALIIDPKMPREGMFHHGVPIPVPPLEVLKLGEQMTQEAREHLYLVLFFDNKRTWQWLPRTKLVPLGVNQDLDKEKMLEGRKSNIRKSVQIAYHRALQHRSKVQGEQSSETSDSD

[16] = biological target: Histone acetyltransferase KAT2A (Homo sapiens, UniProt Q92830); assay: Binding affinity to KAT2A in human HUT78 cells incubated for 45 mins by mass spectrometry based bromosphere chemoproteomic assay; type: cell-based
Histone acetyltransferase KAT2A, sequence (Q92830 whole entry): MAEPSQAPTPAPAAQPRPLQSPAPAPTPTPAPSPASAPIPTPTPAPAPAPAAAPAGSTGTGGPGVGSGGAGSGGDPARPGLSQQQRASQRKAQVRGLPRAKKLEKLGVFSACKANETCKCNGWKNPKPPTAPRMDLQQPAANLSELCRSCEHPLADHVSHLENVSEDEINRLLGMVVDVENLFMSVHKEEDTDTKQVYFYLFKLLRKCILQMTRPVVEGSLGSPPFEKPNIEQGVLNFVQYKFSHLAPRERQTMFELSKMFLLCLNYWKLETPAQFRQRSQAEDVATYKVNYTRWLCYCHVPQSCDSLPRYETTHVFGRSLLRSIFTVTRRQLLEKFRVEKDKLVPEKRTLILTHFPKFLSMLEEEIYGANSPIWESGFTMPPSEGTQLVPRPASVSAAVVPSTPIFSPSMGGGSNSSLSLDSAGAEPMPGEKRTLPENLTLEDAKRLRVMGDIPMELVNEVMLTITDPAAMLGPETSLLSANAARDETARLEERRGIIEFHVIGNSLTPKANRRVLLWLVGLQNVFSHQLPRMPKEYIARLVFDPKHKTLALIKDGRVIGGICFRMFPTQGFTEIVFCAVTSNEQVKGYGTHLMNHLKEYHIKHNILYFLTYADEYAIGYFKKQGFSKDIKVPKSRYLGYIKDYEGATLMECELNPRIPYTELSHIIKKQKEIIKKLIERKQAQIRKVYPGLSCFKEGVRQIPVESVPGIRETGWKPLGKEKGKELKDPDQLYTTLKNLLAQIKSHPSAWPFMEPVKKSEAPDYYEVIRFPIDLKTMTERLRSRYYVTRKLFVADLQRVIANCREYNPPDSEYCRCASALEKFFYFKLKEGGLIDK

[17] = biological target: Protein polybromo-1 (Homo sapiens, UniProt Q86U86); assay: Binding affinity to PBRM1 in human HUT78 cells incubated for 45 mins by mass spectrometry based bromosphere chemoproteomic assay; type: cell-based
Protein polybromo-1, sequence (Q86U86 whole entry): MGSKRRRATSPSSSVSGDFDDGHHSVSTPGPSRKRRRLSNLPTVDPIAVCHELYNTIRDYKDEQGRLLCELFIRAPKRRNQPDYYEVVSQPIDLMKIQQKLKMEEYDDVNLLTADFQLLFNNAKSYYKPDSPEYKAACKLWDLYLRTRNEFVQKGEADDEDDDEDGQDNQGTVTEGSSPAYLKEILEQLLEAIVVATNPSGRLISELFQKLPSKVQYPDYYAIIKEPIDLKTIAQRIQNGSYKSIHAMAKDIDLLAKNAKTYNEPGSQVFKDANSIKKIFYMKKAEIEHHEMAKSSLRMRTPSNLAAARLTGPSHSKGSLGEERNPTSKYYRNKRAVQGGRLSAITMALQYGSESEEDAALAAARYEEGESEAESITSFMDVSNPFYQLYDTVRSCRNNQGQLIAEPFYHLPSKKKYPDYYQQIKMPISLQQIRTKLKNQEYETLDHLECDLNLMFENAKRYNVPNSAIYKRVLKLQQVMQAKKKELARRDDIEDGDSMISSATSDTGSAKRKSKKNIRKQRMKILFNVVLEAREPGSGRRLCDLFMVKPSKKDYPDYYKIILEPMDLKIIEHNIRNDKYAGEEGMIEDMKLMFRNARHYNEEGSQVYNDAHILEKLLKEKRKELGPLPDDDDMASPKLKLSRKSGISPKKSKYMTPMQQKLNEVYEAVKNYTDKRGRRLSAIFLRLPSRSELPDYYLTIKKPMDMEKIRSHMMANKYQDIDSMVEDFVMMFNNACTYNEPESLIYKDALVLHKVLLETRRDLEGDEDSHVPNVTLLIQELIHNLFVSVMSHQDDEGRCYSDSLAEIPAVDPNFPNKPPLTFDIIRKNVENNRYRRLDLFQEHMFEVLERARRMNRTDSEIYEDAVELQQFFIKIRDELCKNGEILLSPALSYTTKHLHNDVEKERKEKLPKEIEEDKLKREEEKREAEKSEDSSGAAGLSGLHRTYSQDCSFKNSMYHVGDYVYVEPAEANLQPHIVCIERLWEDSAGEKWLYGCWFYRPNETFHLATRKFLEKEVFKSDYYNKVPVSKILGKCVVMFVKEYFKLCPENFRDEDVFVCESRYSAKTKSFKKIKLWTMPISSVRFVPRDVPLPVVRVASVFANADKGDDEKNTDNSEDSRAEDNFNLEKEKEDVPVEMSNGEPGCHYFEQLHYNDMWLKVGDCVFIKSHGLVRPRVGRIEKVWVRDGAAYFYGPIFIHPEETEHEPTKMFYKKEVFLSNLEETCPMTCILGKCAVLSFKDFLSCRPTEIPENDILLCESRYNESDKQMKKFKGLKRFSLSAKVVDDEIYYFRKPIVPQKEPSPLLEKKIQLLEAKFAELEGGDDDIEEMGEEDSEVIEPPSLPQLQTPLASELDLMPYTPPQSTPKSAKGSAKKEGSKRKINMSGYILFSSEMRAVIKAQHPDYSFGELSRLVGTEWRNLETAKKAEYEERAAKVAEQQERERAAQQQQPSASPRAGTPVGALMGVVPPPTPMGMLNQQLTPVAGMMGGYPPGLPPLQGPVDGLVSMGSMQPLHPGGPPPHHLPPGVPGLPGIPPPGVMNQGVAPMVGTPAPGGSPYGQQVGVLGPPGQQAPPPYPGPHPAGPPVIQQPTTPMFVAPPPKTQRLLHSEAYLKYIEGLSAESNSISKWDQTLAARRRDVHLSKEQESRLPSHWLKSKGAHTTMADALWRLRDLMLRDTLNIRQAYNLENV

[18] = biological target: Transcription initiation factor TFIID subunit 1 (Homo sapiens, UniProt P21675); assay: Binding affinity to TAF1 in human HUT78 cells incubated for 45 mins by mass spectrometry based bromosphere chemoproteomic assay; type: cell-based
Transcription initiation factor TFIID subunit 1, sequence (P21675 whole entry): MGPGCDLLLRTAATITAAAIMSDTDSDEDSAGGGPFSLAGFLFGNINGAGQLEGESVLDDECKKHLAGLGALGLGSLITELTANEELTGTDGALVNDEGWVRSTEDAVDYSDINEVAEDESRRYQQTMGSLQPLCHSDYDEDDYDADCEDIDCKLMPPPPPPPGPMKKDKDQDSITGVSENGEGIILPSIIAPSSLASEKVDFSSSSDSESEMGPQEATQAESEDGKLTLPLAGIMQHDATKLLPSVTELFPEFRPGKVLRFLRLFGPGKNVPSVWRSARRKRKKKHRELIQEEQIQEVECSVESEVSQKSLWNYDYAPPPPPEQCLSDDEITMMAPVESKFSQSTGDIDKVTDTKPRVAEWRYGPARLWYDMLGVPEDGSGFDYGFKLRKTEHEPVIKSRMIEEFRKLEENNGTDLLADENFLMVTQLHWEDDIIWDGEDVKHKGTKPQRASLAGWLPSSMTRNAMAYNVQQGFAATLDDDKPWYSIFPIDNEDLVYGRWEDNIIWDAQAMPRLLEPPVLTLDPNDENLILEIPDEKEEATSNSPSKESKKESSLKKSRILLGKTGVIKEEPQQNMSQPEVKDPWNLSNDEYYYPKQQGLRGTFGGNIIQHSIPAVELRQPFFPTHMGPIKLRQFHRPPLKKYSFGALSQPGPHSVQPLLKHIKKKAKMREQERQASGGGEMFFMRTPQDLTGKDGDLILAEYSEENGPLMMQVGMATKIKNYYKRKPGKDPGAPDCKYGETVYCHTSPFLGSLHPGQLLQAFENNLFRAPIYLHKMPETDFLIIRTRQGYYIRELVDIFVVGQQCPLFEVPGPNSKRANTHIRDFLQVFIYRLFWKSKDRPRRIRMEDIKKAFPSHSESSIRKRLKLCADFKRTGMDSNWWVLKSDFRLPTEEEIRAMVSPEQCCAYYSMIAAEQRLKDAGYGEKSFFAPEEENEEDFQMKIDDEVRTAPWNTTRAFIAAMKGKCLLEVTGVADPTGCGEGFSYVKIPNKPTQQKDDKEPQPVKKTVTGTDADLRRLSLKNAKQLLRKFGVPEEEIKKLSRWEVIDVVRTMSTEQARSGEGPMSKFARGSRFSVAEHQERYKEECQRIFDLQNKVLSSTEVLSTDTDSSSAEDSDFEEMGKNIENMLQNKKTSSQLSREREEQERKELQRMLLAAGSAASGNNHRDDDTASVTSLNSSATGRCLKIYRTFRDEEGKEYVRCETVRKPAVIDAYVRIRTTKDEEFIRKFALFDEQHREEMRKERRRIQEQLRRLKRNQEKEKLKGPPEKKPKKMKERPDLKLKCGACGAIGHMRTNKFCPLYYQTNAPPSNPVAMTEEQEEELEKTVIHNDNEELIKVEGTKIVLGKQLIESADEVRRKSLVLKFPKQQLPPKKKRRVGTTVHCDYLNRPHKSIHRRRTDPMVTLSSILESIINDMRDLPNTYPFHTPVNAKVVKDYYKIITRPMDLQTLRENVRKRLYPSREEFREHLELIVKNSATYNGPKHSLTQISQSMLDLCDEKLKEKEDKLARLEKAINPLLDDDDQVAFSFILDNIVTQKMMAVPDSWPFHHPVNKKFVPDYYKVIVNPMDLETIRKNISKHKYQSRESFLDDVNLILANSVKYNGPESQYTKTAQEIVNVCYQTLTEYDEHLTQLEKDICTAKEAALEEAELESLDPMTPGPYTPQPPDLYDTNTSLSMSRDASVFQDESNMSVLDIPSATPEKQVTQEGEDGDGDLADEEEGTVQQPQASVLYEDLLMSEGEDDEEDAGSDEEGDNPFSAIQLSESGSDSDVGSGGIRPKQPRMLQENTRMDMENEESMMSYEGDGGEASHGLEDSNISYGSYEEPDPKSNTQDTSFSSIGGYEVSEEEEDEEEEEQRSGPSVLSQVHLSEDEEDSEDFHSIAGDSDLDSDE

[19] = biological target: Tyrosine-protein kinase BAZ1B (Homo sapiens, UniProt Q9UIG0); assay: Binding affinity to BAZ1B in human HUT78 cells incubated for 45 mins by mass spectrometry based bromosphere chemoproteomic assay; type: cell-based
[20] = biological target: Bromodomain-containing protein 7 (Homo sapiens, UniProt Q9NPI1); assay: Binding affinity to BRD7 in human HUT78 cells incubated for 45 mins by mass spectrometry based bromosphere chemoproteomic assay; type: cell-based
[21] = biological target: T3, Bromodomain testis-specific protein; assay: Binding affinity to BRDT in human HUT78 cells incubated for 45 mins by mass spectrometry based bromosphere chemoproteomic assay; type: cell-based
[22] = biological target: Histone acetyltransferase KAT2B (Homo sapiens, UniProt Q92831); assay: Binding affinity to KAT2B in human HUT78 cells incubated for 45 mins by mass spectrometry based bromosphere chemoproteomic assay; type: cell-based

Compound	chromatographic logD [1]	Papp at 3 h [2] [×10⁻⁶ cm/s]	solubility kinetic at 1 h [9] [µM]	Kd [10] [µM]	Kd [11] [µM]	Kd [12] [µM]	Kd [13] [µM]	Kd [14] [µM]	Kd [15] [µM]	Kd [16] [µM]	Kd [17] [µM]	Kd [18] [µM]	also measured
Cc1cncc(-c2cnc(N[C@@H]3CCNC[C@H]3OCC3CCS(=O)(=O)CC3)c3[nH]c(=O)c(C)cc23)c1	1.6	< 0.3	179 (≈ 91.6 µg/mL)	–	–	–	–	–	–	–	–	–	IC50 [3]: > 50.1 µM; IC50 [4]: 15.8 µM; IC50 [5]: > 50.1 µM; IC50 [6]: 5.01 µM; IC50 [7]: > 50.1 µM; IC50 [8]: 15.8 µM
Cc1cncc(-c2cnc(N[C@@H]3CCNC[C@H]3OCC3CCCCC3)c3[nH]c(=O)c(C)cc23)c1	4	13.8	170 (≈ 78.5 µg/mL)	> 100	> 100	3.16	2	15.8	> 100	> 100	> 100	31.6	–
Cc1cncc(-c2ccc(N[C@@H]3CCNC[C@H]3OCC3CCS(=O)(=O)CC3)c3[nH]c(=O)c(C)cc23)c1	–	–	–	3.98	> 100	0.631	1	1.26	25.1	> 100	2.51	1.58	Kd [19]: > 100 µM; Kd [20]: 3.16 µM; Kd [21]: 2 µM; Kd [22]: > 100 µM
